In PubChem BioAssay AID328 (DTP/NCI, 2004):
Values joined by “and” are separate entries in the source; they are usually repeats but may differ in a detail not shown here. Equal values may be shown once. Inconclusive results and toxic doses are left out. The calls were made as follows: active = survival T/C of 150% or more; inactive = T/C below 125% in these data.

System: BDF1 mice, P388 leukemia ip, median survival T/C
Assay: NCI In Vivo Anticancer Drug Screen. Data for tumor model P388 Leukemia (intraperitoneal) in B6D2F1 (BDF1) mice
Conditions: endpoint: median survival time, higher = longer survival
Summary of the method: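 Compound-treated tumour-bearing mice were compared with vehicle-treated controls. Survival was recorded, and the value is the treated-group measurement divided by the control-group measurement (T/C).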

[1] = dose: 100.0 mg/kg/injection, schedule: Q01DX009 (ip), vehicle: saline with Tween-80
[2] = dose: 400.0 mg/kg/injection, schedule: Q01DX009 (ip), vehicle: saline with Tween-80
[3] = dose: 200.0 mg/kg/injection, schedule: Q01DX009 (ip), vehicle: saline with Tween-80
[4] = dose: 100.0 mg/kg/injection, schedule: Q04DX003 (ip), vehicle: saline with Tween-80
[5] = dose: 200.0 mg/kg/injection, schedule: Q04DX003 (ip), vehicle: saline with Tween-80
[6] = dose: 400.0 mg/kg/injection, schedule: Q04DX003 (ip), vehicle: saline with Tween-80
[7] = dose: 50.0 mg/kg/injection, schedule: Q01DX009 (ip), vehicle: saline with Tween-80
[8] = dose: 12.5 mg/kg/injection, schedule: Q01DX009 (ip), vehicle: saline with Tween-80

Measured: T/C

CC(=O)OC1CCC2(C)CCCC(O)C2(O)C1 (stereo unspecified)
inactive: [1] 103 % of control | dose: 100.0 mg/kg/injection, schedule: Q04DX003 (ip), vehicle: saline 110 % of control | dose: 200.0 mg/kg/injection, schedule: Q04DX003 (ip), vehicle: saline 90 % of control | [2] 103 % of control | dose: 400.0 mg/kg/injection, schedule: Q04DX003 (ip), vehicle: saline 110 % of control

Clc1ccc(/C(=C(\Br)c2ccccc2)c2ccccc2)cc1
inactive: [1] 104 % of control and 100 % of control | [3] 86 % of control and 100 % of control | [2] 95 % of control and 90 % of control

OC(C(c1ccccc1)N1CCCCC1)C(O)(c1ccccc1)c1ccccc1 (stereo unspecified)
inactive: dose: 100.0 mg/kg/injection, schedule: Q01DX001 (ip), vehicle: saline sonified 100 % of control | dose: 200.0 mg/kg/injection, schedule: Q01DX001 (ip), vehicle: saline sonified 105 % of control | dose: 400.0 mg/kg/injection, schedule: Q01DX001 (ip), vehicle: saline sonified 100 % of control

NOCc1ccccc1CON
inactive: dose: 37.5 mg/kg/injection, schedule: Q04DX003 (ip), vehicle: saline 108 % of control | dose: 75.0 mg/kg/injection, schedule: Q04DX003 (ip), vehicle: saline 95 % of control | dose: 150.0 mg/kg/injection, schedule: Q04DX003 (ip), vehicle: saline 100 % of control

CCCNC(=O)Nc1cccc(C(F)(F)F)c1
inactive: [4] 104 % of control | [5] 109 % of control | [6] 100 % of control

O=C(Nc1cccc2c1N(C(=O)c1ccco1)CCC2)c1ccco1
inactive: [4] 91 % of control | [5] 100 % of control | [6] 104 % of control

C/C=C/C=C/NC(=O)Oc1ccccc1
inactive: [4] 91 % of control | [5] 94 % of control | [6] 116 % of control

O=C(Cl)C1=C(c2ccccc2)C1c1ccccc1 (stereo unspecified)
inactive: [7] 102 % of control | [1] 101 % of control

O=C(/C=C\c1ccnc2ccccc12)c1ccc([N+](=O)[O-])cc1
inactive: dose: 12.5 mg/kg/injection, schedule: Q04DX003 (ip), vehicle: water 96 % of control | dose: 25.0 mg/kg/injection, schedule: Q01DX009 (ip), vehicle: water 114 % of control | dose: 25.0 mg/kg/injection, schedule: Q04DX003 (ip), vehicle: water 90 % of control | dose: 50.0 mg/kg/injection, schedule: Q01DX009 (ip), vehicle: water 117 % of control | dose: 50.0 mg/kg/injection, schedule: Q04DX003 (ip), vehicle: water 115 % of control | dose: 100.0 mg/kg/injection, schedule: Q01DX009 (ip), vehicle: water 95 % of control | dose: 100.0 mg/kg/injection, schedule: Q04DX003 (ip), vehicle: water 106 % of control and 111 % of control | dose: 200.0 mg/kg/injection, schedule: Q01DX009 (ip), vehicle: water 98 % of control | dose: 200.0 mg/kg/injection, schedule: Q04DX003 (ip), vehicle: water 100 % of control | dose: 400.0 mg/kg/injection, schedule: Q01DX009 (ip), vehicle: water 96 % of control | dose: 400.0 mg/kg/injection, schedule: Q04DX003 (ip), vehicle: water 100 % of control

Cc1c(N2CCCCC2)[nH]c2ccccc12
inactive: dose: 50.0 mg/kg/injection, schedule: Q04DX003 (ip), vehicle: Klucel (hydroxypropylcellulose) (HPC) 100 % of control | dose: 100.0 mg/kg/injection, schedule: Q04DX003 (ip), vehicle: Klucel (hydroxypropylcellulose) (HPC) 100 % of control | dose: 200.0 mg/kg/injection, schedule: Q04DX003 (ip), vehicle: Klucel (hydroxypropylcellulose) (HPC) 95 % of control

O=c1nc(Oc2ccccc2)nc2ncccn12
inactive: [8] 121 % of control

N#C/C(=C\C=C\c1ccccc1)C(N)=O
inactive: [7] 110 % of control | [1] 120 % of control | [3] 120 % of control

O=C(C=C(C(F)(F)F)C(F)(F)F)c1ccco1
inactive: dose: 6.25 mg/kg/injection, schedule: Q01DX009 (ip), vehicle: saline with Tween-80 120 % of control | [8] 120 % of control

N=C(N)c1ccc(N=C(N)Nc2ccc(C(=N)N)cc2)cc1
inactive: dose: 50.0 mg/kg/injection, schedule: Q01DX009 (ip), vehicle: saline 118 % of control
